Patent US20240199605A1, “SMALL MOLECULAR INHIBITORS OF NF-kB INDUCING KINASE” (Janssen Pharmaceutica NV, priority 2019, published 2024)

How the values were obtained:
[1] = target: recombinant human NF-kappaB-inducing kinase (NIK/MAP3K14) (Homo sapiens (Human), UniProt Q99558); experiment: Inhibition of auto-phosphorylation of recombinant human NIK/MAP3K14 (AlphaScreen); format: biochemical; conditions: NIK auto-phosphorylation, 5 μM ATP, 1 nM NIK, 2 h at 25° C.; average of values
How it was run: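 GST-tagged NIK (1 nM) auto-phosphorylated with 5 μM ATP for 2 h at 25° C. in 50 mM Tris pH 7.5, 5 mM MgCl2, 1 mM EGTA, 1 mM DTT, 0.1 mM Na3VO4, 0.01% Tween 20 (0.7% DMSO). Detected by AlphaScreen via anti-phospho-IKK Ser176/180 antibody; IC50 from sigmoidal fit of % inhibition versus log concentration.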

[2] = tested on: p-IKKα levels in L363 (NIK translocated multiple myeloma) cells; experiment: Effect of compounds on p-IKKα levels in L363 cells (AlphaLISA SureFire Ultra); format: cell-based, human; conditions: Homo sapiens, L-363, 6 h, BAFF stimulated, MG132, 6 h, average of values, read-out: Assay 2 IC50
How it was run: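 Inhibition of p-IKKα (Ser176/180) read by AlphaLISA after 6 h, 37 °C compound exposure (11-point 1:3 series, 0.3% DMSO) of L363 cells pre-incubated overnight ± 250 ng/ml BAFF and plated ± BAFF ± 10 μM MG132. Normalised to BAFF/MG132/DMSO and unstimulated controls; IC50 by sigmoidal fitting, duplicates.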

Chain of recombinant human NF-kappaB-inducing kinase (NIK/MAP3K14) (Q99558 whole entry): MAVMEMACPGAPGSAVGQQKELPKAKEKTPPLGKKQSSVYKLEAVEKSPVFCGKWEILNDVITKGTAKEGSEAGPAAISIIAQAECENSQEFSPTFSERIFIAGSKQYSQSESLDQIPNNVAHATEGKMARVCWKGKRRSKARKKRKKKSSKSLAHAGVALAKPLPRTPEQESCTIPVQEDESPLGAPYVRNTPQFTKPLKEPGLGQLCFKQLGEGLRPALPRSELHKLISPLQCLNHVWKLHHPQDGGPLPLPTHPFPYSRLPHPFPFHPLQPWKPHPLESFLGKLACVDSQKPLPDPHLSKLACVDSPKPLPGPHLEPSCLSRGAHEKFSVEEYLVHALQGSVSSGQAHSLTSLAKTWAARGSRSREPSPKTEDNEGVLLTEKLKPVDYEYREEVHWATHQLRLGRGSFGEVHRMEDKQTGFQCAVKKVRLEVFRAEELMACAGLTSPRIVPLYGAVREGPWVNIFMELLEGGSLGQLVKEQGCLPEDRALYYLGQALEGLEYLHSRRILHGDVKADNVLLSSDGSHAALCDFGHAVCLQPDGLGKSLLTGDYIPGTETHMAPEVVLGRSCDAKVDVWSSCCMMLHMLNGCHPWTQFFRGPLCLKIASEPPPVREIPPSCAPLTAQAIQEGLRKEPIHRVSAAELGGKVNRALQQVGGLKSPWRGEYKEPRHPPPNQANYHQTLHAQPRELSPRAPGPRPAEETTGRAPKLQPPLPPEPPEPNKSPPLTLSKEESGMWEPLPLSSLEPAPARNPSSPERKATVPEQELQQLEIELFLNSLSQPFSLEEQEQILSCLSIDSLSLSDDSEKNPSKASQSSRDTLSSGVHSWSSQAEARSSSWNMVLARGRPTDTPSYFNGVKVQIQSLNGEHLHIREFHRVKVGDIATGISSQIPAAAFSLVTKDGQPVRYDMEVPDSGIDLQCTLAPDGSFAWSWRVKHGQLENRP

| Structure (SMILES) | IC50 [1] | IC50 [2] |
| --- | --- | --- |
| [2H]c1nc(N)c2nc(-c3cccc(C#C[C@]4(O)CCN(C)C4=O)c3)cc(C(C)C)c2n1 [Example 283, (R)-3-((3-(4-Amino-8-isopropylpyrido[3,2-d]pyrimidin-6-yl-2-d)phenyl)ethynyl)-3-hydroxy-1-methylpyrrolidin-2-one] | 0.6 nM | 1.4 nM |
| CN1CC[C@@](O)(C#Cc2cccc(-c3cc(C(F)(F)F)c4ncnc(N)c4n3)c2)C1=O [Example 284, (R)-3-((3-(4-Amino-8-(trifluoromethyl)pyrido[3,2-d]pyrimidin-6-yl)phenyl)ethynyl)-3-hydroxy-1-methylpyrrolidin-2-one] | 0.7 nM | 2.8 nM |
| Cc1nc(N)c2nc(-c3cccc(C#C[C@]4(O)CCN(C)C4=O)c3)cc(C)c2n1 [Example 285, (R)-3-((3-(4-Amino-2,8-dimethylpyrido[3,2-d]pyrimidin-6-yl)phenyl)ethynyl)-3-hydroxy-1-methylpyrrolidin-2-one] | 1.7 nM | 12 nM |
| [2H]C([2H])([2H])c1cc(-c2cccc(C#C[C@]3(O)CCN(C)C3=O)c2)nc2c(N)ncnc12 [Example 286, (R)-3-((3-(4-Amino-8-(methyl-da)pyrido[3,2-d]pyrimidin-6-yl)phenyl)ethynyl)-3-hydroxy-1-methylpyrrolidin-2-one] | 0.9 nM | 3.1 nM |
| [2H]c1nc(N)c2nc(-c3cccc(C#C[C@]4(O)CCN(C)C4=O)c3)cc(C3CCNCC3)c2n1 [Example 287, (R)-3-((3-(4-Amino-8-(piperidin-4-yl)pyrido[3,2-d]pyrimidin-6-yl-2-d)phenyl)ethynyl)-3-hydroxy-1-methylpyrrolidin-2-one] | 44 nM | > 5000 nM |
| CN1CC[C@@](O)(C#Cc2cccc(-c3ccc4nc(F)nc(N)c4n3)c2)C1=O [Example 288, (R)-3-((3-(4-Amino-2-fluoropyrido[3,2-d]pyrimidin-6-yl)phenyl)ethynyl)-3-hydroxy-1-methylpyrrolidin-2-one] | 0.9 nM | 16 nM |
| CN1CC[C@@](O)(C#Cc2cccc(-c3cc(N(C)C)c4ncnc(N)c4n3)c2)C1=O [Example 295, (R)-3-[2-[3-[4-Amino-8-(dimethylamino)pyrido[3,2-d]pyrimidin-6-yl]phenyl]ethynyl]-3-hydroxy-1-methyl-pyrrolidin-2-one] | 3.1 nM | 18 nM |
| CNc1cc(-c2cccc(C#C[C@]3(O)CCN(C)C3=O)c2)nc2c(N)ncnc12 [Example 296, (R)-3-[2-[3-[4-Amino-8-(methylamino)pyrido[3,2-d]pyrimidin-6-yl]phenyl]ethynyl]-3-hydroxy-1-methyl-pyrrolidin-2-one] | ≤ 0.5 nM | 6.9 nM |
| CC(C)Nc1cc(-c2cccc(C#C[C@]3(O)CCN(C)C3=O)c2)nc2c(N)ncnc12 [Example 297, (R)-3-[2-[3-[4-Amino-8-(isopropylamino)pyrido[3,2-d]pyrimidin-6-yl]phenyl]ethynyl]-3-hydroxy-1-methyl-pyrrolidin-2-one] | 1.9 nM | 31 nM |
| CN1CC[C@@](O)(C#Cc2cccc(-c3cc(NC4CC4)c4ncnc(N)c4n3)c2)C1=O [Example 298, (R)-3-[2-[3-[4-Amino-8-(cyclopropylamino)pyrido[3,2-d]pyrimidin-6-yl]phenyl]ethynyl]-3-hydroxy-1-methyl-pyrrolidin-2-one] | 0.8 nM | 24 nM |
| CN1CC[C@@](O)(C#Cc2cccc(-c3cc(OC(F)F)c4ncnc(N)c4n3)c2)C1=O [Example 299, (R)-3-[2-[3-[4-Amino-8-(difluoromethoxy)pyrido[3,2-d]pyrimidin-6-yl]phenyl]ethynyl]-3-hydroxy-1-methyl-pyrrolidin-2-one] | 1.7 nM | 12 nM |
| CN1CC[C@@](O)(C#Cc2cccc(-c3cc(N4CC(F)(F)C4)c4ncnc(N)c4n3)c2)C1=O [Example 300, (R)-3-[2-[3-[4-Amino-8-(3,3-difluoroazetidin-1-yl)pyrido[3,2-d]pyrimidin-6-yl]phenyl]ethynyl]-3-hydroxy-1-methyl-pyrrolidin-2-one] | 1.2 nM | 39 nM |
